Measurements published in ChEMBL document CHEMBL1126547, “Cardioselective anti-ischemic ATP-sensitive potassium channel openers” (J Med Chem, 1993).
The source made the active and inactive calls. No cut-off for these calls is given here.

Assays:
Rattus norvegicus [1] = species on record: Rattus norvegicus; assay: Anti-ischemic potency determined as concentration required for increase in time to contracture in globally ischemic rat hearts 10 uM; No significant activity; assay type: functional
Rattus norvegicus [2] = species on record: Rattus norvegicus; assay: Vasorelaxant potency determined by inhibition of methoxamine-contracted rat aorta; assay type: functional
Rattus norvegicus [3] = species on record: Rattus norvegicus; assay: Anti-ischemic potency determined as concentration required for increase in time to contracture in globally ischemic rat hearts; assay type: functional
[4] = Ratio between EC25 and IC50 values was determined
[5] = Oral bioavailability in rat; assay type: ADME, organism-based; conditions: in vivo
[6] = Plasma half-life was determined in rats; assay type: ADME, organism-based; conditions: rat, read-out: Elimination half-life (converted)

In the case of `CC1(C)Oc2ccccc2[C@@H](/N=C(\NC#N)Nc2ccccc2)[C@@H]1O`, the EC25 (Rattus norvegicus [1]) is reported as “inactive” and the IC50 (Rattus norvegicus [2]; Rattus norvegicus, Aorta) is reported as 72.7 µM.

For `CC1(C)Oc2ccc(C#N)cc2[C@@H](/N=C(\S)Nc2ccccc2)[C@@H]1O`, the EC25 (Rattus norvegicus [3]) was 7.7 µM, the IC50 (Rattus norvegicus [2]; Rattus norvegicus, Aorta) was 1.7 µM and the Ratio [4] was 4.5.

In the case of `CC1(C)Oc2ccc(C#N)cc2[C@@H](NC(=O)Nc2ccccc2)[C@@H]1O`, the EC25 (Rattus norvegicus [3]) is reported as 5.1 µM.

With `CC1(C)Oc2ccc(C#N)cc2[C@@H](/N=C(\NC#N)Nc2ccccc2)[C@@H]1O` (stereo in doubt; 12) [listing 1 of 2 here] the Ratio [4] was 4.7.

`CC1(C)Oc2ccc(C#N)cc2[C@@H](/N=C(\NC#N)Nc2ccccc2)[C@@H]1O` (stereo in doubt; 5) [listing 1 of 2 here] showed an EC25 (Rattus norvegicus [3]) of 11 µM.

`CC1(C)Oc2ccc(C#N)cc2[C@@H](/N=C(\NC#N)Nc2ccccc2)[C@@H]1O` (stereo in doubt; 13) showed an EC25 (Rattus norvegicus [3]) greater than 30 µM and an IC50 (Rattus norvegicus [2]) of 4.2 µM.

Work on `CC1(C)Oc2ccc(C#N)cc2[C@@H](/N=C(\NC#N)Nc2ccc(O)cc2)[C@@H]1O` yielded an EC25 (Rattus norvegicus [3]) of 33.4 µM, an IC50 (Rattus norvegicus [2]; Rattus norvegicus, Aorta) of 2.2 µM and a Ratio [4] of 15.2.

In the case of `CC1(C)Oc2ccc(C#N)cc2C(N2CCCC2=O)C1O` (stereo unspecified) [CROMAKALIM], the EC25 (Rattus norvegicus [3]) is reported as 8.9 µM, the IC50 (Rattus norvegicus [2]; Rattus norvegicus, Aorta) is reported as 0.032 µM and the Ratio [4] is reported as 278.

`CC1(C)Oc2ccc(C#N)cc2[C@@H](NC(=NC#N)Nc2ccc(Cl)cc2)[C@@H]1O` showed a bioavailability [5] of 61% and a half-life [6] of 7 h.

With `CCC(C)(C)/N=C(\NC#N)N[C@@H]1c2cc(C#N)ccc2OC(C)(C)[C@H]1O` the EC25 (Rattus norvegicus [3]) was 20.1 µM and the Ratio [4] was 0.7.

Work on `CC1(C)Oc2ccc(C#N)cc2[C@@H](/N=C(\NC#N)Nc2ccccc2)[C@@H]1O` (stereo in doubt; 12) [listing 2 of 2 here] yielded a bioavailability [5] of 70%, a half-life [6] of 1.8 h and an EC25 (Rattus norvegicus [3]) of 6.1 µM. It also gave an IC50 (Rattus norvegicus [2]) of 1.3 µM.

In the case of `CC1(C)Oc2ccc(C#N)cc2[C@@H](/N=C(\NC#N)Nc2ccc(C(F)(F)F)cc2)[C@@H]1O`, the EC25 (Rattus norvegicus [3]) is reported as 13.4 µM, the IC50 (Rattus norvegicus [2]; Rattus norvegicus, Aorta) is reported as 8.1 µM and the Ratio [4] is reported as 1.7.

For `CC1(C)Oc2ccc(C#N)cc2[C@@H](/N=C(\NC#N)Nc2ccc(Cl)cc2)[C@@H]1O`, the EC25 (Rattus norvegicus [3]) was 2.5 µM, the IC50 (Rattus norvegicus [2]; Rattus norvegicus, Aorta) was 1.8 µM and the Ratio [4] was 1.4.

Compound `CC1(C)Oc2ccc(C#N)cc2[C@@H](/N=C(\NC#N)Nc2ccccc2)[C@@H]1O` (stereo in doubt; 5) [listing 2 of 2 here] has a Ratio [4] of 7.9.

In the case of `CC1(C)Oc2ccc([N+](=O)[O-])cc2[C@@H](/N=C(\NC#N)Nc2ccccc2)[C@@H]1O`, the EC25 (Rattus norvegicus [3]) is reported as 7.2 µM, the IC50 (Rattus norvegicus [2]; Rattus norvegicus, Aorta) is reported as 2 µM and the Ratio [4] is reported as 3.6.

Compound `C#Cc1ccc2c(c1)[C@@H](/N=C(\NC#N)Nc1ccccc1)[C@H](O)C(C)(C)O2` has an EC25 (Rattus norvegicus [3]) greater than 30 µM and an IC50 (Rattus norvegicus [2]; Rattus norvegicus, Aorta) of 5.4 µM.

Work on `CC1(C)Oc2ccc(C#N)cc2[C@@H](/N=C(\NC#N)Nc2ccc(F)cc2)[C@@H]1O` yielded a bioavailability [5] of 64%, a half-life [6] of 1.7 h and an EC25 (Rattus norvegicus [3]) of 3.5 µM. The IC50 (Rattus norvegicus [2]; Rattus norvegicus, Aorta) was 1.4 µM and the Ratio [4] was 2.5.
